Laboratory results reported in patent publication US20010049113A1, “Diagnosis and treatment of herpes infections” (priority 2000, published 2001).

Experiments:
HSV-1 [1] = assay: HSV-1 viral protein synthesis in infected H-ras transformed NIH-3T3 cells, Western blot with rabbit anti-HSV-1 antibody; type: cell-based, HSV-1 (strain F); settings: for production of viral proteins / HSV-1 infection / infectivity (summary statement): H-ras transformed NIH-3T3 cells; for production of viral proteins: 22 hours post-infection
Experimental: (§1) Western blot (Immunoblot) analysisinfected cells were lysed with the single detergent lysis buffer [50 mM Tris (pH 8.0), 150 mM NaCI, 0.02% sodium azide, 100 μg/ml phenylmethy-sulfonyl fluoride, 1 μg/ml aprotinin, and 1% Triton X-100], normalized for the amount of total protein and subjected to SDS-PAGE, followed by electroblotting onto nitrocellulose paper. The membrane was then washed and incubated with the primary antibody [rabbit antibody against all HSV-1 antigens (Dako, CA.; 1:20,000); mouse anti-ICP27 or anti-gC antibody (Rumbaugh-Goodwin Institute, FL; 1:1,000); rabbit anti-ICP8 antibody (from Dr. Paul Olivo, Washington University, St. Louis; 1:1,000); mouse anti-PKR and mouse anti-eIF-2 α antibody (Santa Cruz; 1:1,000); rabbit anti-phospho-PKR and rabbit antiphospho-eIF-2 α antibody (Biosource, CA; 1:1,000) followed by HRP-conjugated secondary antibody (1:2,000). After extensive washing, the blot was exposed to Lumigel detection solution (New England Biolabs) and subjected to autoradiography.
(§2) H-ras transformed NIH-3T3 cells were exposed to the farnesyl transferase inhibitors FTI-1 at a final concentration 50 μM or 100 μM in the culture medium. Control cells were not exposed to inhibitor. At 22 hours post-infection the cells were harvested and Western blot analysis was performed on these samples using rabbit anti-HSV-1 antibody, as described above.
as §2, with “To determine whether other inhibitors of farnesyl transferase would have the same effect on viral protein synthesis, three additional inhibitors were tested. H-ras” for “H-ras”, “FPTI-1, FPTI-2 and FTI-4” for “FTI-1”, “150 μM, 150” for “50”, “or 50” for “100”, “postinfection” for “post-infection”
HSV-1 infected H-ras transformed NIH-3T3 cells were exposed to 40 μM PD98059 in the culture medium. Control cells (HSV-1 infected) were not exposed to PD98059. At 22 hours post-infection, the cells were harvested and Western blot analysis was performed on these samples using rabbit anti-HSV antibody, as described above.
P-13 Kinase Pathway is Not Involved in HSV-1 InfectionH-ras cells that were infected with HSV-1 were exposed to Wortmannin at a final concentration of 200 nM for the entire duration of the infection. Cells were harvested at 22 hr. post infection, lysed and subjected to SDS PAGE followed by immunoblotting with a rabbit anti-HSV-1 antibody.

HSV-1 [2] = assay: HSV-1 viral protein synthesis in PKR+/+ and PKR-/- mouse embryo fibroblasts, Western blot; type: cell-based; settings: MOI 0.5 PFU/cell, 20 hr post-infection
Experimental: The PKR^+/^+ and PKR^−/^− mouse embryo fibroblasts were obtained from Dr. B. R. G. Williams (the Cleveland Clinic Foundation) and were grown in α-MEM containing 10% FBS and antibiotics, as described.
as §1, with “After extensive washing, the blot was exposed to Lumigel detection solution (New England Biolabs) and subjected to autoradiography.” left out
The level of infection by R3616 in PKR^−/^− fibroblasts is equivalent to that seen in cells transformed by Ras, or elements of the Ras pathway. […] Cells were harvested at 20 hr post-infection and analyzed for viral proteins as above. […]

HSV-1 [3] = assay: HSV-1 virus yield from H-ras transformed cells, plaque titration on Vero cells; type: cell-based; settings: MOI 0.5 PFU/cell, harvested 22 hours post infection, inhibitor present for entire infection
PKR phosphorylation = PKR phosphorylation in HSV-1 infected H-ras cells, immunoblot with anti-PKR / anti-phospho-PKR; type: cell-based, murine
Experimental: as §1
H-ras cells were exposed to FTI-1 (100 μM) or PD98059(40 μM) and the phosphorylation state of PKR was assessed using anti-PKR (total PKR) or anti-phospho-PKR (P-PKR) antibodies . […] The difference in phosphorylation of PKR in infected NIH-3T3 cells and in infected MEF cells is shown in the right side of FIG. 10, Panel “B”.

HSV-1 [4] = assay: Immunofluorescence of HSV-1-infected A549 cells; type: cell-based; settings: 100 μM FTI-1
[5] = tested on: ERK1/2 (Erk42/44) phosphorylation; assay: ERK1/2 phosphorylation in H-ras cells, Western blot; type: cell-based, murine
Text: (§3) Briefly, subconfluent monolayer cultures were lysed with the recommended SDS-containing sample buffer, the lysate was subjected to SDS-PAGE and electroblotted onto nitrocellulose paper. Blots were probed with anti-ERK1/2 or anti-phospho-ERK1/2 antibodies (for samples treated with FTI-1 or PD98059), anti-ATF-2 or anti-phospho-ATF-2 (for samples treated with SB203580), and anti-Akt and anti-phospho-Akt (for samples treated with Wortmannin). The antibody kits were purchased from New England Biolabs (MA). FTI-1, PD98059, SB203580 and Wortmannin were purchased from Calbiochem (CA).

ATF-2 phosphorylation = ATF-2 phosphorylation in H-ras cells, Western blot; type: cell-based, murine; settings: SB203580
Text: as §3

| Compound | production of viral proteins (HSV-1 [1]; FTI-1 50 μM or 100 μM in culture medium, vs control without inhibitor) | HSV-1 infection / infectivity (summary statement) (HSV-1 [1]) | HSV-1 infection (viral protein synthesis) (HSV-1 [2]; PKR+/+ cells) | HSV-1 infection (viral protein synthesis) (HSV-1 [2]; PKR-/- cells) | virus yield (plaque titration on Vero cells) (HSV-1 [3]) | PKR phosphorylation (PKR phosphorylation; FTI-1 100 μM) | level of viral proteins detected by immunofluorescence (HSV-1 [4]) | phosphorylation of ERK1/2 (ERK42/44) ([5]; FTI-1 50 μM or 100 μM) | production of viral proteins (HSV-1 [1]; 40 μM PD98059, vs control) | PKR phosphorylation (PKR phosphorylation; PD98059 40 μM) | phosphorylation of ERK1/2 (Erk42/44) ([5]; PD98059 40 μM) | effect on HSV-1 infection (viral proteins, immunoblot) (HSV-1 [1]; SB203580 at effective doses, H-ras transformed cells) | phosphorylation of ATF-2 (ATF-2 phosphorylation) |
| --- | --- | --- | --- | --- | --- | --- | --- | --- | --- | --- | --- | --- | --- |
| CSCC[C@H](NC(=O)[C@H](Cc1ccccc1)NC[C@@H](NC[C@@H](N)CS)C(C)C)C(=O)O [FTI-1] | drastically reduced | effectively block HSV-1 infection | inhibited HSV-1 infection | no effect | dramatically decreased virus yield | PKR phosphorylation is restored | dramatically reduces the level of viral proteins detected | reduced phosphorylation of ERK1/2 |  |  |  |  |  |
| COc1cccc(-c2cc(=O)c3ccccc3o2)c1N [PD98059] |  | partially blocked HSV-1 infection |  |  | dramatically decreased virus yield |  |  |  | reduced | PKR phosphorylation is restored | lack of phosphorylation of ERK1/2 |  |  |
| C[S+]([O-])c1ccc(-c2nc(-c3ccncc3)c(-c3ccc(F)cc3)[nH]2)cc1 (centres unmarked) [SB203580] |  | neither SB203580 [11] a specific inhibitor of p38 kinase, or Wortmannin [12] a specific inhibitor of P13-kinase, had any measurable effect |  |  | does not effect virus yield |  |  |  |  |  |  | no effect on HSV-1 infection | lack of phosphorylation of ATF-2 |
